Data set [1] addresses T1, PPARγ (Mus musculus, UniProt P37238).
T1 construct: expressed in transfected cells; host or cells: 293T cells
T1 sequence (P37238 1-505): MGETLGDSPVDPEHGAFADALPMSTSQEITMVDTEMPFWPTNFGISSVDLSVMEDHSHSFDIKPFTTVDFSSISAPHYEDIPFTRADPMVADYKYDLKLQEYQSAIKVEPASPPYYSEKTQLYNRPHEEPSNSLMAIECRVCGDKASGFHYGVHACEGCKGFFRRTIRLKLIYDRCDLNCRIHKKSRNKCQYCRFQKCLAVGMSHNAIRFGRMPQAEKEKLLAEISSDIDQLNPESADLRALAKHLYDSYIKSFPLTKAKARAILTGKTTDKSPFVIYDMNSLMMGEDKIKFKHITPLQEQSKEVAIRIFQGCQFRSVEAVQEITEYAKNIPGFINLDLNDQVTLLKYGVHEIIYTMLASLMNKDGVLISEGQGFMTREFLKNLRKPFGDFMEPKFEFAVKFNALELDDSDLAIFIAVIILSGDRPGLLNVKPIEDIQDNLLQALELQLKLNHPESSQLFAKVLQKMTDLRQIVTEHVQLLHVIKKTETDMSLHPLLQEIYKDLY
The experiment in a line: PPAR reporter assay in 293T cells, PPARγ (agonist GW7845). In kind it is cell-based. The note with it: for inhibition at 1 µM: 1 μM compound; for inhibition at 10 µM: 10 μM compound; for inhibition at 25 µM: 25 μM compound. On the technique in general: Reporter assays use an easily measured gene product as a stand-in for the process of interest.

The target of data set [2] is T2, PPARα (Homo sapiens, UniProt Q07869).
T2 construct: purchased Cayman Chemicals
T2 sequence (Q07869 239-466 limits assumed): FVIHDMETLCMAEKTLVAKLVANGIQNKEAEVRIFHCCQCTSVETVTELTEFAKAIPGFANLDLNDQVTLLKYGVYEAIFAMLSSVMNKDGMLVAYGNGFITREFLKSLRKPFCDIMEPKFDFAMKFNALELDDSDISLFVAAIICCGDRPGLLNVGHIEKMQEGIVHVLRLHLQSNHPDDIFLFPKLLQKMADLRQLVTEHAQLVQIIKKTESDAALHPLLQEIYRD
Description: Fluorescent Polarization (FP) binding assay with corepressor peptides, PPARα. As to conditions: Nb = no binding. The procedure:
(§1) For PPARγ screening, a fluorescent ligand supplied by Cayman Chemicals was also used. All compounds were dissolved in DMSO as 10 mM stock solutions and the final DMSO content in the assay was <1%. A TECAN Ultra 485 multi-functional microplate reader and GraphPad prism 4 software were used for measurements and analysis, respectively.
(§2) PPAR antagonists are expected to enhance the affinities of the corepressor peptides, and therefore, FP should increase as the compound concentration increases. Agonists would be expected to weaken the affinity of the same co-repressor peptide. Although this effect occurs for PPARγ, the dissociation of corepressor peptides varies for PPARα and PPARδ due to altered presentations of the overlapping coactivator/corepressor binding surfaces (Stanley T. B. et al. Biochemistry 42:9278-87, 2003). Compounds were screened initially against PPARγ and PPARδ at 1 and 100 μM. If binding was observed, titration experiments from 10 nM to 100 μM were carried out in triplicate with all three PPARs. […] For screening, either enhancement or weakening of FP was considered active.
(§3) Virtual screening for PPARγ was conducted against 56,000 compounds from the Maybridge library that targeted the ligand binding domain (LBD) of PPARγ, and 10 conformations of each compound were docked to the LBD using Autdock4 software (Scripps Institute). Sixty of the top ranked compounds were ordered from Maybridge, and 58 were available for evaluation. Fluorescent Polarization (FP) assays were established with the tagged co-repressor peptides NCoR1 and SMRT, the recombinant PPARα and PPARγ ligand-binding domains and full-length PPARδ. […] Sd-107 and its analogs are disclosed herein. The chemical structure is shown below.

The subject of data set [3] is PPARα. The experiment in a line: PPAR reporter assay in 293T cells, PPARα (agonist WY14643). In kind it is cell-based. As to conditions: 1 μM agonist WY14643.
Data set [4] has as its target T3, PPARγ (Homo sapiens, UniProt P37231).
T3 construct: purchased Cayman Chemicals
T3 sequence (P37231 238-503 limits assumed): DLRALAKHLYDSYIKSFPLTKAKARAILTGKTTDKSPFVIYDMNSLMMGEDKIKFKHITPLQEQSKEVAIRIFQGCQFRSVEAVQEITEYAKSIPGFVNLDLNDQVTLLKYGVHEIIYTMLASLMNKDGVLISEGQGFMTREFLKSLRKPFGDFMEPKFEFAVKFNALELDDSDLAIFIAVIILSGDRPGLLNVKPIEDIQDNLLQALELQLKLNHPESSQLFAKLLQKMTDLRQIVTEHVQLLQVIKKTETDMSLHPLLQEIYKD
The experiment in a line: Fluorescent Polarization (FP) binding assay with corepressor peptides, PPARγ. As to conditions: for EC50: read-out: Binding assay EC50, γ. The procedure:
as §1, §2, §3

In the next data set the test system is PPARα, PPARγ, PPARδ. The experiment in a line: PPAR reporter assays, isotype profile over the three PPARs. The note with it: for PPAR inhibitor type (Table 1): from reporter data; for PPAR isotype selectivity in reporter assays: inhibition of activation by 1 μM agonist.
Data set [5] addresses T4, PPARδ (Homo sapiens, UniProt Q03181).
T4 construct: purchased Cayman Chemicals
T4 sequence (Q03181 1-441): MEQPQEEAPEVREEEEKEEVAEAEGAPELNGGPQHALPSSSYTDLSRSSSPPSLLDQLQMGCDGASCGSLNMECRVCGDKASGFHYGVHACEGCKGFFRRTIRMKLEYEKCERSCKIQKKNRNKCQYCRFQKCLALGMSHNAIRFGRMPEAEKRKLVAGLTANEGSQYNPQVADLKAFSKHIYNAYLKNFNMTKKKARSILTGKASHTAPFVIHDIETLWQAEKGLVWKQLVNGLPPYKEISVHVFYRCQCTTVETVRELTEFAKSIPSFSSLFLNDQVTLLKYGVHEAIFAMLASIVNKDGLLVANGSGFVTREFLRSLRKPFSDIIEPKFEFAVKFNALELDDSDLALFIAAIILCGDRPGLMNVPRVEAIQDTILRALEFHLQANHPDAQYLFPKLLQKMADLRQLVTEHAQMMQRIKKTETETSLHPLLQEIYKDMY
The experiment in a line: Fluorescent Polarization (FP) binding assay with corepressor peptides, PPARδ. The note with it: Nb = no binding. The method, then:
as §1, §2, §3

The test system of data set [6] is PPARδ. The experiment in a line: PPAR reporter assay in 293T cells, PPARδ (agonist GW501516). The data set is classed as cell-based. As to conditions: 1 μM agonist GW501516.
Data set [7] concerns Mouse mammary tumor cell lines MC, 437T, 105T and 34T; Comma1D mammary epithelial cell line. The experiment in a line: Cytotoxicity against mammary cell lines. In kind it is cell-based. As to conditions: 0-25 μM BTB07995, with and without GW501516. The source says:
Mouse mammary tumor cell lines MC, 437T, 105T and 34T were generated from primary DMBA-induced tumors in wild-type FVB, MMTV-Pax8PPARγ transgenic, Sca-1 null and Sca-1+/EGFP mice. Comma1D is an immortalized mammary epithelial cell line.

Data set [8] concerns the target T4, PPARδ. As to conditions: cited from earlier work.
Where [9] appears, read: HEK-293T, 1 μM agonist GW7845, 293T cells, read-out: Reporter assay (% inhibition), γ.

The text below walks through data of patent publication US20130158063A1, “Compounds, Compositions and Methods Related to PPAR Antagonists” (GEORGETOWN UNIVERSITY, priority 2010, published 2013).

Entries after “also recorded” stand apart in the source; their conditions may differ.

A word on the inhibition: it is the relative decrease from the control value, in per cent. As usually defined, the EC50 is the concentration needed to bring the measured effect to its halfway point.

With `CC(C)(C)c1ccc(S(=O)(=O)N(NC(=O)c2ccc(Cl)nc2)C(=O)c2ccc(Cl)nc2)cc1` [YL-1-83], the inhibition at 1 µM on PPARγ [1] (setting [9]) was found to be 0%. Further, the inhibition at 10 µM at PPARγ [1] (setting [9]) was found to be 0%. At PPARγ [1] (setting [9]), the inhibition at 25 µM was 37%. The “PPARγ antagonism” value on PPARγ [1] (binding and reporter screening) was “weak PPARγ antagonist”. The EC50 turned out to be 1300 nM on PPARα [2] (read-out: Binding assay EC50, α) and 110 nM at PPARγ [4] (FP assay, Nb = no binding). Also, the “Reporter assay (% inhibition), α” value with PPARα [3] (1 μM compound), with PPARα [3] (10 μM compound) and with PPARα [3] (25 μM compound) was 0% each time. In addition, on PPARγ [4] (FIG. 17, YL-1-80 analogs), the “Competition in FPA of PPARγ with fluorescent labeled NCoR peptide probe” value is “best competition”. The “PPAR inhibitor type (Table 1)” value with PPARα, PPARγ, PPARδ was “PPARγ inhibitor”. In the data set on PPARα, PPARγ, PPARδ, the “PPAR isotype selectivity in reporter assays” value was “more selective for PPARγ”. Also, the “Binding assay EC50, δ” value on PPARδ [5] was “δ nb”. For the same molecule, the “Reporter assay (% inhibition), δ” value in the data set on PPARδ [6] (1 μM compound), in the data set with PPARδ [6] (10 μM compound) and with PPARδ [6] (25 μM compound) was 0% in each case.

`CC(=O)Oc1ccc(C(=O)NN(C(=O)c2ccc(OC(C)=O)cc2)S(=O)(=O)c2ccc(C(C)(C)C)cc2)cc1` [YL-1-87]: the inhibition at 1 µM on PPARγ [1] (setting [9]) stood at 19%. Also, the inhibition at 10 µM on PPARγ [1] (setting [9]) is 28%. The inhibition at 25 µM on PPARγ [1] (setting [9]) amounted to 79%. The “Binding assay EC50, α” value at PPARα [2] is on record as “nb”. The entries for the “Reporter assay (% inhibition), α” value in the data set on PPARα [3] (1 μM compound), in the data set on PPARα [3] (10 μM compound) and in the data set on PPARα [3] (25 μM compound) were 0%, 0% and 52%, respectively. In addition, the concentration giving a half-maximal response (EC50) on PPARγ [4] (FP assay, Nb = no binding) came out at 410 nM. Moreover, the “PPAR inhibitor type (Table 1)” value in the data set on PPARα, PPARγ, PPARδ was “Pan inhibitor”. Besides, the “Binding assay EC50, δ” value at PPARδ [5] is recorded as “δ nb”. Also, the “Reporter assay (% inhibition), δ” value is on record as “δ 18%” with PPARδ [6] (1 μM compound), 23% in the data set with PPARδ [6] (10 μM compound) and 60% in the data set with PPARδ [6] (25 μM compound).

`CC(C)(C)c1ccc(S(=O)(=O)N(C(=O)c2ccc(Cl)cc2)N(C(=O)c2ccc(Cl)cc2)C(=O)c2ccc(Cl)cc2)cc1` [YL-1-68-1]: the inhibition at 1 µM on PPARγ [1] (setting [9]) is 0%. Further, the inhibition at 2.5 µM at PPARγ [1] (HEK-293T, 2.5 μM compound, 1 μM agonist GW7845, 293T cells, read-out: Reporter assay (% inhibition), γ) stood at 16%. Besides, at PPARγ [1] (setting [9]), the inhibition at 10 µM came to 50%. Besides, the inhibition at 25 µM at PPARγ [1] (setting [9]) amounted to 75%. The “Binding assay EC50, α” value at PPARα [2] is reported as “α nb γ nb”. In addition, the “Reporter assay (% inhibition), α” value in the data set with PPARα [3] (1 μM compound) is on record as 0%; in the data set on PPARα [3] (10 μM compound), 0%; in the data set with PPARα [3] (25 μM compound), 17%. Also, the “Binding assay EC50, γ” value at PPARγ [4] (FP assay, Nb = no binding) was “α nb γ nb”. Also, in the data set on PPARα, PPARγ, PPARδ, the “PPAR inhibitor type (Table 1)” value is “PPARγ/δ inhibitor”. In addition, on PPARδ [5], the “Binding assay EC50, δ” value is listed as “δ nb”. Moreover, the “Reporter assay (% inhibition), δ” value stood at 0% with PPARδ [6] (1 μM compound), 0% in the data set on PPARδ [6] (2.5 μM compound), 0% in the data set on PPARδ [6] (10 μM compound) and 47% in the data set with PPARδ [6] (25 μM compound).

As for `O=C(NCCS(=O)(=O)c1ccc(C(F)(F)F)cn1)c1ccc(Cl)cc1` [BTB07995, reference compound], in data set [7], the “Cytotoxicity to mouse mammary cell lines” value is “not cytotoxic”. For the same molecule, the “PPARδ ligand potency and selectivity (literature)” value on PPARδ [8] was “potent and selective ligand for PPARδ”. Further, the “Agonist activity in Gal4-mPPAR reporter assays” value in the data set with PPARα, PPARγ, PPARδ (293T cells, 24 hr, absence of specific ligand) is “not an agonist for PPARα, PPARδ and PPARγ”. In the data set on PPARα, PPARγ, PPARδ, the “PPAR isotype selectivity in reporter assays” value is “PPARδ selectivity at lower concentrations; also recorded: selective antagonist of PPARδ”.
